One block for each compound: values may come before it. Active and inactive are the calls of the source.
Key:
[1] = molecular target: Luciferin 4-monooxygenase (Photinus pyralis, UniProt P08659); experiment: inhibition of purified Photinus pyralis luciferase – biochemical, luminescence, dose response (AID 1891)
[2] = Luminescence Cell-Based Dose Confirmation HTS to Identify Inhibitors of Platelet Dense Granule Release. [Related pubchem assays: 1663 (Primary HTS), 1678 (Summary of Project)]; assay type: functional
[3] = molecular target: T1, E3 ubiquitin-protein ligase XIAP (Homo sapiens, UniProt P98170); experiment: Counter Screen using XIAP-Bir3 for Chemical Antagonists of Bir1/2 domains of IAP-family anti-apoptotic proteins. [Related pubchem assays (depositor defined):AID1018, AID1449, AID1514, AID1638, AID1749, AID1750, AID488957, AID488963]
T1 sequence (P98170 whole entry): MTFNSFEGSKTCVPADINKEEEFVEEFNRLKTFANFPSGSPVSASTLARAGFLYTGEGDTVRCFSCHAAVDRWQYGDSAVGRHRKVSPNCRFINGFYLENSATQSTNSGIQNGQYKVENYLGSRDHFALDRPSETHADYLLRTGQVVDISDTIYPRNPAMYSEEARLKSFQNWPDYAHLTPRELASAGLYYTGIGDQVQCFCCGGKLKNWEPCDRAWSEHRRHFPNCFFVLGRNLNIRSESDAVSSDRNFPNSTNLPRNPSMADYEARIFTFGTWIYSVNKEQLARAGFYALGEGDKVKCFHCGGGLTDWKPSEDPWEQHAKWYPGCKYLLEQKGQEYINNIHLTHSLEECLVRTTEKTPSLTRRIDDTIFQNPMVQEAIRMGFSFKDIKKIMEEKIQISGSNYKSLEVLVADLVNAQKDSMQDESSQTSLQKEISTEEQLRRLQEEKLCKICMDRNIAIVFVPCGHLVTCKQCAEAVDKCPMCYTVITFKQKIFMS

[4] = molecular target: T1, E3 ubiquitin-protein ligase XIAP; experiment: small molecules displacing peptide from XIAP – biochemical, IAP family, fluorescence polarization (AID 1018); assay type: functional
[5] = molecular target: T2, Tyrosine-protein phosphatase non-receptor type 7 (Homo sapiens, UniProt P35236); experiment: redox-active compounds inhibiting HePTP phosphatase – biochemical, fluorescence, mechanism study (AID 2068); assay type: functional
T2 sequence (P35236 whole entry): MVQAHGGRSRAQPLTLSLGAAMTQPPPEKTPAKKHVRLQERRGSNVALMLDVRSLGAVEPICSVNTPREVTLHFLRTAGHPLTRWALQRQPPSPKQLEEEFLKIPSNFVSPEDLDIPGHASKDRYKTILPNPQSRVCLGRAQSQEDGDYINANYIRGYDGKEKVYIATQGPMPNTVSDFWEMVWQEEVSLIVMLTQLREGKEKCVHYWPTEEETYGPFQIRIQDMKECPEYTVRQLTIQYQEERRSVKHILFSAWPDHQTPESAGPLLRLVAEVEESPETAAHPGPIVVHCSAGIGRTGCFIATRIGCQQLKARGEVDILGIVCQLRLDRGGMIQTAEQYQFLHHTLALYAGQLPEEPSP

Mu-type opioid receptor = Mu-type opioid receptor (Homo sapiens, UniProt P35372); experiment: SAR Analysis of Antagonists of the MOR Receptor using an Image-Based Assay - Set 3. [Related pubchem assays (depositor defined):AID1777, AID1785, AID1786, AID1966, AID2133, AID2136, AID2284, AID2285, AID2420]; assay type: functional
Chain of Mu-type opioid receptor (P35372 whole entry): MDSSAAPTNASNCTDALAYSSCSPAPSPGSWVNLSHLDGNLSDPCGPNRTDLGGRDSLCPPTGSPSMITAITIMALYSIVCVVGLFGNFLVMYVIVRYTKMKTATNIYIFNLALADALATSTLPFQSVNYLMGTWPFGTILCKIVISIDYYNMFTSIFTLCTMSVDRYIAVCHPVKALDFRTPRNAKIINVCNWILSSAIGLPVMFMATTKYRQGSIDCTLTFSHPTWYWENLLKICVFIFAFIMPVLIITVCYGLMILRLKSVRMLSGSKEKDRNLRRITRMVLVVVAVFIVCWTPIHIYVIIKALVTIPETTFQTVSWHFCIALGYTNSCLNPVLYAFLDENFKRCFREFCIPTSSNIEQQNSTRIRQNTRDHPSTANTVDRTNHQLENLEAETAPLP

[6] = molecular target: T3, Kappa-type opioid receptor (Homo sapiens, UniProt P41145); experiment: SAR analysis of small molecule antagonists of the kappa opioid receptor via a luminescent beta-arrestin assay - Set 4. [Related pubchem assays (depositor defined):AID1777, AID1778, AID1785, AID1786, AID1966, AID2133, AID2136, AID2285]; assay type: functional
T3 sequence (P41145 whole entry): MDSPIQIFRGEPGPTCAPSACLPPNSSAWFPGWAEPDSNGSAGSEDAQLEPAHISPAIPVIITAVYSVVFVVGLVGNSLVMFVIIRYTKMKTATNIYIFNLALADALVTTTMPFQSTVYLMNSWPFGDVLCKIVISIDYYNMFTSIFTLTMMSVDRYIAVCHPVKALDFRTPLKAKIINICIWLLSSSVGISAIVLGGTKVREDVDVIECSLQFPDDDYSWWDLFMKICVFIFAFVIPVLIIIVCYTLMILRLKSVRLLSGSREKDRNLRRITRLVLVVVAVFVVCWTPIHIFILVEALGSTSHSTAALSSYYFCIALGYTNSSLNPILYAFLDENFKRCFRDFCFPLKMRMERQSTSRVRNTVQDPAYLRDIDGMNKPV

[7] = molecular target: Delta-type opioid receptor (Homo sapiens, UniProt P41143); experiment: SAR Analysis of Antagonists of the DOR Receptor using an Image-Based Assay - Set 3. [Related pubchem assays (depositor defined):AID1777, AID1785]; assay type: functional;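 further: U2OS cells expressing DOR1 and beta-arrestin GFP stimulated with 100 nM SNC80; imaging of GFP-tagged beta-arrestin moving into spots after receptor activation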
Chain of Delta-type opioid receptor (P41143 whole entry): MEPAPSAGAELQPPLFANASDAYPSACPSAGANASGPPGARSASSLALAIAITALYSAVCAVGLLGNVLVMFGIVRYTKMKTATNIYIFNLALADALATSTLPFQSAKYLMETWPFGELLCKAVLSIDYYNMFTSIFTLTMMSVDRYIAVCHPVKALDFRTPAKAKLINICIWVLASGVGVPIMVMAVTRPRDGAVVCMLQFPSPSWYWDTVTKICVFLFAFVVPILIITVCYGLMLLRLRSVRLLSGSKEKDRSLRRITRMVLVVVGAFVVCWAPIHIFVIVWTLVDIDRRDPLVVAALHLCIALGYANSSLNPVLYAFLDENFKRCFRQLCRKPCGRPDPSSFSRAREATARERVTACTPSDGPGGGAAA

[8] = molecular target: T3, Kappa-type opioid receptor; experiment: SAR analysis of Antagonists of the Kappa Opioid Receptor (KOR) using an Image-Based Assay - Set 4. [Related pubchem assays (depositor defined):AID1777, AID1785]; assay type: functional
[9] = molecular target: Induced myeloid leukemia cell differentiation protein Mcl-1 (Homo sapiens, UniProt Q07820); assay type: functional
Chain of Induced myeloid leukemia cell differentiation protein Mcl-1 (Q07820 whole entry): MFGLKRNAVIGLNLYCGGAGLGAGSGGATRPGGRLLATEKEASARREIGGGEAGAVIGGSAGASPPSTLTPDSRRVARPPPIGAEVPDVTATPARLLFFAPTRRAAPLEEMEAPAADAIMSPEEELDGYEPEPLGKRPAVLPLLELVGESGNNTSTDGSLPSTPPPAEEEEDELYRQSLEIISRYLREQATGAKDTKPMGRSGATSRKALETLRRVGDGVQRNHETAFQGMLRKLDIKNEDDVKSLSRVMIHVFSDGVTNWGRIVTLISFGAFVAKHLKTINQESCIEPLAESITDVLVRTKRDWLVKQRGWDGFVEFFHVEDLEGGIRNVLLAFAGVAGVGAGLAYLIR

Troponin, cardiac muscle = Troponin, cardiac muscle (Homo sapiens, UniProt P19429+P45379+P63316); experiment: Fluorescence-based biochemical high throughput dose response assay for activators of the calcium sensitivity of cardiac Regulated Thin Filaments (RTF). [Related pubchem assays (depositor defined):AID493008, AID493018, AID504382, AID504383]; assay type: protein-complex assay
[10] = molecular target: T4, Heat shock factor protein 1 (Mus musculus, UniProt P38532); experiment: enhancement of HSF1-driven luciferase signal – cell-based, NIH3T3, luminescence, dose retest, confirmation (AID 435004); assay type: functional;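 further: stress induced by proteasome inhibitor MG132 added 30 min after compound; luciferase reporter driven by HSF1 response element in NIH3T3 cells; actives raise luminescence as potentiators of the MG132 stress response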
T4 sequence (P38532 whole entry): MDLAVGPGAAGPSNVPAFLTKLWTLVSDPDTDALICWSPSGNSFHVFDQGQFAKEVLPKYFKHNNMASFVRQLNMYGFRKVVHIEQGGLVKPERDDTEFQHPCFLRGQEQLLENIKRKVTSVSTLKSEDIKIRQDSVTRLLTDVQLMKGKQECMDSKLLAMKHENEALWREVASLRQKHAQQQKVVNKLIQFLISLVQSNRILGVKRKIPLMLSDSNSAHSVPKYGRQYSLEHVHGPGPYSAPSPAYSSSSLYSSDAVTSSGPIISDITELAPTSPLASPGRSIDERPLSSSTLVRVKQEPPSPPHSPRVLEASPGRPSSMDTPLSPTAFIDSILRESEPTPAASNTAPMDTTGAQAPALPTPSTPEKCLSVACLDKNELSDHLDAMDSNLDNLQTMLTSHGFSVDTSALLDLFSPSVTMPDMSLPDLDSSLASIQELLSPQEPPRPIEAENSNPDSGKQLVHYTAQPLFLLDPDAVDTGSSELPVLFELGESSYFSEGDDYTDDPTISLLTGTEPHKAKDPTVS

NADPH oxidase 1 = NADPH oxidase 1 (Homo sapiens, UniProt Q9Y5S8); experiment: Late stage results from the probe development effort to identify inhibitors of NOX1: HEK/293 IC50. [Related pubchem assays: 1796 (Summary AID (NOX1)), 2752 (Primary screen (NOX1 inhibitors, synthesized analogs set 2)), 2664 (Primary screen (NOX1 inhibitors, synthesized analogs)), 1792 (Primary Screen (NOX1)), 2545 (Confirmation screen (NOX1 …; assay type: functional
Chain of NADPH oxidase 1 (Q9Y5S8 whole entry): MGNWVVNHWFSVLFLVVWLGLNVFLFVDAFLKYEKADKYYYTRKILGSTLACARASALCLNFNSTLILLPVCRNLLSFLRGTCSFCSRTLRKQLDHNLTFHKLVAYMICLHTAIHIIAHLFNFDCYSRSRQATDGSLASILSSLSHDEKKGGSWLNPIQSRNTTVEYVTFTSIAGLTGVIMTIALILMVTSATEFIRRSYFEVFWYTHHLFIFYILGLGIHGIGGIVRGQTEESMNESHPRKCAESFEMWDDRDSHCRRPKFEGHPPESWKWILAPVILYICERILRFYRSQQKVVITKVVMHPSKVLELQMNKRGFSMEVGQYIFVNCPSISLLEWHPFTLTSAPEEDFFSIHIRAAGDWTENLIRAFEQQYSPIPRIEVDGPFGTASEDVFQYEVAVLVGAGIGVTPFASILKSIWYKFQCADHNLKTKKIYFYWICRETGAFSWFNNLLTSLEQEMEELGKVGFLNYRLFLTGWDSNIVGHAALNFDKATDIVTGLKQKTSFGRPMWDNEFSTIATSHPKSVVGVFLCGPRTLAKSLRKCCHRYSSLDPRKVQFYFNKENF

NADPH oxidase 4 = NADPH oxidase 4 (Homo sapiens, UniProt Q9NPH5); experiment: PubChem AID 435013
Chain of NADPH oxidase 4 (Q9NPH5 whole entry): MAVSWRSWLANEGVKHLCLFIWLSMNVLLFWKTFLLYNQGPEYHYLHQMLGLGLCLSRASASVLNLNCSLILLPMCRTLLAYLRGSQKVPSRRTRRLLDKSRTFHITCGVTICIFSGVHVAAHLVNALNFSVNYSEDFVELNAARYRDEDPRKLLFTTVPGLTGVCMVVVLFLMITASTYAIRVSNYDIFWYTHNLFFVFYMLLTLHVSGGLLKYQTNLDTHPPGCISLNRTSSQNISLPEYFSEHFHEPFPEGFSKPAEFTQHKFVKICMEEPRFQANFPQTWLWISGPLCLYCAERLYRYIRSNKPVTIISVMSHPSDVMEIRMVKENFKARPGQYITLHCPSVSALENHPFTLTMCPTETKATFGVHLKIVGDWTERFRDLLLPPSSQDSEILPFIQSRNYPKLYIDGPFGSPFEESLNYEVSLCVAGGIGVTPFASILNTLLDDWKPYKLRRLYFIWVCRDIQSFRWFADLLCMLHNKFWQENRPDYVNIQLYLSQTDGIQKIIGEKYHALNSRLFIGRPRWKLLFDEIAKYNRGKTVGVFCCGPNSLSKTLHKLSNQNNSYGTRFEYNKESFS

NADPH oxidase 3 = NADPH oxidase 3 (Homo sapiens, UniProt Q9HBY0); experiment: PubChem AID 435013
Chain of NADPH oxidase 3 (Q9HBY0 whole entry): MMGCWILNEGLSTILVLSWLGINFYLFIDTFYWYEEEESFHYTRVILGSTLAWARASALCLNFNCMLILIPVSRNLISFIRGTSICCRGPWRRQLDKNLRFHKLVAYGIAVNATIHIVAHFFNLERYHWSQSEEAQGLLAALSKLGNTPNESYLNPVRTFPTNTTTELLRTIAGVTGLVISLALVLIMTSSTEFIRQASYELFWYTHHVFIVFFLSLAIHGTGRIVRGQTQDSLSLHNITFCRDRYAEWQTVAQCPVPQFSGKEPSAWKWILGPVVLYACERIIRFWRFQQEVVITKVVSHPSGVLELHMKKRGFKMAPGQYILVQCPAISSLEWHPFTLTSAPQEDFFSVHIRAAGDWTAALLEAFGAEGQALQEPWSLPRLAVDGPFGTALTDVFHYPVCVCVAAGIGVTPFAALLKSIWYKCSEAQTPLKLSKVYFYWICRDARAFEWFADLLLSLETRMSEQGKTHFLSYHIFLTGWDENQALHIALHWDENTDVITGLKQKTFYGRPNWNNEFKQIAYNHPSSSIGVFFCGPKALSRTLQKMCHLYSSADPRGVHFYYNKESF

NADPH oxidase 2 = NADPH oxidase 2 (Homo sapiens, UniProt P04839); experiment: PubChem AID 435013
Chain of NADPH oxidase 2 (P04839 whole entry): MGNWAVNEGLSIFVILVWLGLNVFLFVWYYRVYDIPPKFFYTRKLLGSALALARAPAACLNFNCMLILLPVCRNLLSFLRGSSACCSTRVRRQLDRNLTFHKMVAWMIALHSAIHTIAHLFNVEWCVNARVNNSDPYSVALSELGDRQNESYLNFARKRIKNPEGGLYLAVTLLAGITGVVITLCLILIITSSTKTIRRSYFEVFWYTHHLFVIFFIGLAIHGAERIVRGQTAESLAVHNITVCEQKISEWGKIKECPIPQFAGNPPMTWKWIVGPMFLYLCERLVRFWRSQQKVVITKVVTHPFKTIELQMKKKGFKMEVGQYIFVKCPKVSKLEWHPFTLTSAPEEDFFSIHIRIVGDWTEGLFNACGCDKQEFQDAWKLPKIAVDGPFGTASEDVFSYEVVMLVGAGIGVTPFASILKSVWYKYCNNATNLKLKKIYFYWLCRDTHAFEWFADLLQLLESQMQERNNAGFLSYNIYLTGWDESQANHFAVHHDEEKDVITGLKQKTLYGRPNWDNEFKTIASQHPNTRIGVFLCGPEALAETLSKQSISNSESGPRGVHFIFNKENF

Chain of Luciferin 4-monooxygenase (P08659 whole entry): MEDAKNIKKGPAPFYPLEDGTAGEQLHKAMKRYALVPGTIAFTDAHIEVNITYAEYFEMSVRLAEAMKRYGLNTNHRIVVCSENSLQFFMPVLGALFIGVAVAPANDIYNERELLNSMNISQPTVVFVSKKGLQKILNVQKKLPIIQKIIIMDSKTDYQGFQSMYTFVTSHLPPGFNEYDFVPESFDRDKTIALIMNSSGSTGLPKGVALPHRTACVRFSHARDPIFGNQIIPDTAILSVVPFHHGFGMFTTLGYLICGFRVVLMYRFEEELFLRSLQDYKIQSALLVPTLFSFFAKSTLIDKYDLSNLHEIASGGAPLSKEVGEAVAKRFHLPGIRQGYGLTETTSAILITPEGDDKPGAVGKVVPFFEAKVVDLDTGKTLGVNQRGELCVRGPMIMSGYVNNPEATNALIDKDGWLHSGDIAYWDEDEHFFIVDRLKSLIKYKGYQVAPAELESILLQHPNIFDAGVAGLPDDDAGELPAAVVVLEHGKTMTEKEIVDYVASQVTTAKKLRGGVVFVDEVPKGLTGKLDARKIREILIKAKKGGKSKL

Compound: Cc1ccnc(N2C(=O)c3ccccc3C2O)c1 (stereo unspecified)
EC50 [1]: 27.7 µM (active)
EC50 [2]: 6.49 µM (active)
IC50 [3]: > 100 µM (inactive)
IC50 [4]: > 100 µM (not active)

IC50 [5]: 1.01 µM (active)
Compound: CCCNC(=O)Nc1ccc2nc(-c3ccco3)c(-c3ccco3)nc2c1

IC50 (Mu-type opioid receptor): > 32 µM (inactive)
IC50 [6]: 2 µM (active)
IC50 [7]: > 32 µM (inactive)
IC50 [8]: 2.25 µM (active)
Compound: CCCc1ccc(S(=O)(=O)NCc2ccc(C(=O)NCCN(Cc3ccccc3)C(C)C)cc2)cc1

IC50 [9]: 4.32 µM (active)
EC50 (Troponin, cardiac muscle): 3.93 µM (active)
EC50 [10]: > 260 µM (inactive)
Compound: COc1ccc(N/C=C2\C(=O)CCc3c2oc2cc(Cl)c(O)c(Cl)c32)cc1

IC50 (NADPH oxidase 1): 1 µM (active)
IC50 (NADPH oxidase 4): 5 µM (active)
IC50 (NADPH oxidase 3): 7.5 µM (active)
IC50 (NADPH oxidase 2): 9 µM (active)
Compound: FC(F)(F)c1ccc2c(c1)Nc1ccccc1S2
